Source: patent US20100143972A1, “Method of Making Cyclic Polypeptides with Inteins” (priority 2006, published 2010)
“Also recorded” adds a separate entry of the source. No end group written: not given here.

Assays:
[1] = tested on: Strain AH429 (Agr-I reporter); assay: AIP inhibition assay, Agr-I reporter (RNAIII promoter driving GFP); format: cell-based, S. aureus; details: sample diluted 20-fold into AH429 culture; GFP compared to TSB control
Experimental: (§1) AIP inhibition assays. For monitoring inhibition of the Agr system, an overnight culture of the appropriate reporter strain was inoculated into TSB with chloramphenicol and grown to an optical density of 0.05 (0.25 for AH431) at 600 nm. In triplicate, 475 μl of reporter culture was aliquoted into test tubes (13×100 mm) and 25 μl of spent media or intein-generated AIP was added to each tube. As controls, separate tubes were prepared with the addition of either 25 μl of TSB or chitin elution buffer. The tubes were shaken at 250 rpm at 37° C. and assayed at the following times unless otherwise indicated: AH429, 12 hrs; AH430, 3 hrs; AH431, 4 hrs. Both cell density (optical density, 595 nm) and GFP fluorescence (excitation at 485 nm, emission at 535 nm) was measured in a Tecan GENios microtiter plate reader (Research Triangle Park, N.C.) by removing 100 μl from each tube and assaying in a microtiter plate (Corning 3606 plates). Fluorescence is reported as an average of the three samples. Control AIP samples were prepared from the appropriate S. aureus producing strains. Each strain was grown in TSB until an optical density at 600 nm of ˜2.0-2.5, the cells were pelleted, and the supernatant was filtered through a 0.2 micro syringe filter. The filtered supernatants were stored at 4° C. and used within 48 hrs.
(§2) Agr reporter strains. […]

[2] = tested on: Strain AH431 (Agr-III reporter); assay: AIP inhibition assay, Agr-III reporter (RNAIII promoter driving GFP); format: cell-based, S. aureus; details: sample diluted 20-fold into AH431 culture
Experimental: as §1, §2

[3] = tested on: S. aureus Agr-I (AH462) reporter strain; assay: AIP activation assay, Agr-I reporter; format: cell-based; details: 50 nM iAIP, TSB with 0.2% glucose, AH462, GFP
Experimental: (§3) AIP activation assays. Overnight cultures of S. aureus reporter strains were grown in TSB and sub-cultured 1:50 into TSB+0.2% glucose supplemented with indicated AIP (final volume […] concentration 50 nM). Cultures were grown in test tubes (13×100 mm) at 37° C. shaking at 250 rpm. Cell density and fluorescence was monitored using a Tecan GENios microtiter plate reader at 4, 6, 8, and 10 hours after inoculation.
(§4) In published reports, the addition of AIP samples results in a significant increase in the RNAIII levels (Ji et al., 1997). The inventors reasoned that the S. aureus media conditions are limiting the Agr response, allowing detection of AIP activation. Glucose is a common media component, and growth on glucose is known to repress RNAIII transcription (Regassa et al., 1992). When the reporter strains were grown in TSB with 0.2% glucose, the inventors observed an approximately 70% drop in GFP expression (data not shown). The addition of AIP to the glucose treated strains restores the maximal levels of RNAIII, creating a simple test for AIP activation.

AH430 (Agr-II reporter) = format: cell-based, S. aureus
Experimental: as §1
The intein fusions were kept on resin in the presence of buffer with TCEP, a non-thiol reducing agent, added to maintain DnaB activity and keep the AIP cysteine reduced. Following incubation, the resin buffer was eluted and tested for biological activity. The bioassay is based on the observation that there are three inhibition classes among S. aureus Agr systems (FIG. 1). An S. aureus Agr-II reporter strain, AH430, has a plasmid with the RNAIII transcript promoter driving GFP expression.
Agr reporter strains. To test the iAIPs, reporter strains had to be developed for each of the Agr-I, Agr-II, and Agr-III systems. […]

[4] = tested on: S. aureus Agr-II (AH430) reporter strain; assay: AIP activation assay, Agr-II reporter; format: cell-based; details: 50 nM iAIP, TSB with 0.2% glucose, AH430, GFP
Experimental: as §3, §4

Substance | inhibition of quorum-sensing (GFP fluorescence) in Agr-I reporter strain [1] | inhibition of quorum-sensing (GFP fluorescence) in Agr-III reporter strain [2] | -fold activation over the TSB control, Agr-I reporter [3] | inhibition of quorum-sensing (GFP fluorescence) in Agr-II reporter strain (AH430 (Agr-II reporter); sample diluted 20-fold into AH430 culture, untreated sample) | Agr-II inhibition after hydroxylamine treatment of the sample (AH430 (Agr-II reporter); sample treated with hydroxylamine, opening the thiolactone ring, AH430) | Agr-II inhibition after base treatment of the sample (AH430 (Agr-II reporter); sample treated with sodium hydroxide base to open the thiolactone ring, neutralized with acid, AH430) | -fold activation over the TSB control, Agr-II reporter [4]
iAIP-I: intein-generated S. aureus AIP-I thiolactone peptide with an additional N-terminal methionine (MYSTCDFIM) (not fully specified (bridges); also: thiolactone, places not given here) | did not inhibit quorum-sensing | inhibited | 3.0 -fold | inhibited the quorum-sensing response in strain AH430 in a dose-dependent manner; also recorded: did inhibit activity | neither sample inhibited the Agr response | neither sample inhibited the Agr response | 
iAIP-II: intein-generated S. aureus AIP-II thiolactone peptide (GVNACSSLF), N-terminal methionine completely removed (not fully specified (bridges); also: thiolactone, places not given here) | inhibited quorum-sensing | inhibited quorum-sensing |  |  |  |  | 3.8 -fold
